Results on 16 molecules are retold here after patent publication US8354412B2, “Beta-3 receptor ligands and their use in therapy” (Universita' Degli Studi di Bari, priority 2006, dated 2013).

The target in test [1] is T1, cloned human beta-3 adrenergic receptor (Homo sapiens, UniProt P13945).
T1 construct: expressed in transfected cells; host or cells: CHO-K1
The experiment in a line: cAMP accumulation (DELFIA cAMP-Eu assay) in CHO-K1 cells expressing the beta-3 adrenergic receptor. Type of test: cell-based. To be noted: for Emax: CHO-K1, maximum cAMP response, isoproterenol 10^−4 M = 100%, absence of agonists = 0%, read-out: Intrinsic Activity (IA %); for EC50: concentration of ligand producing 50% of maximum cAMP accumulation, CHO-K1 human β3, SEM, n ≧ 3; for type of activity on the beta-3 adrenergic receptor (in words): statement in the description. The protocol: The determination of the beta-3 adrenergic activity of the compounds of general formula (I) was performed by measuring the levels of cAMP in cell lines of CHO-K1 that express the cloned human beta-3 adrenergic receptor. The accumulation of cAMP is directly correlated to the beta-3 adrenergic activity of the compound and is a predictive measure of the effectiveness of the ligand. The accumulation of cAMP produced by the compounds 1a-1h was determined using the Dissociation Enhanced Lanthanide Fluorescence Immunoassay (DELFIA®, Gabriel, D.; Vernier, M.; Pfeifer, M. J.; Dasen, B.; Tenaillon, L.; Bouhelal, R. Assay and Drug Development Technologies 2003, 1, 291-303), endowed with greater sensitivity and greater accuracy than [α-^32P] radioisotope methods (Hoffmann, C.; Leitz, M. R.; Obendorf-Maass, S.; Lohse, M. J.; Klotz, K.-N. Naunyn-Schmiedeberg's Arch. Pharmacol. 2004, 369, 151-159) or [^3H] (Nannies, K. M.; Briend-Sutren, M. M.; Emorine, L. J.; Delavier-Klutchko, C.; Marullo, S.; Strosberg, A. D. Eur. J. Biochem. 1991, 196, 357-361) of determining the levels of cAMP in cell lines.
(§1) The cell lines of “Chinese hamster ovary” (CHO) that individually express the three subtypes of the human adrenergic receptor (β1, β2 or β3 were grown at 37° C. in an atmosphere composed of 5% of CO2 and 95% of air in a culture medium of Dulbecco's Modified Eagle Medium with a nutrient mixture of F12 (DMEM/F12) supplemented with 10% of bovine fetal Serum, 2 mM of L-glutamine, 100 units/ml of penicillin G and 100 μg/ml of […].
The DELFIA test (Dissociation Enhanced Lanthanide […] Immuno Assay) used for measuring the levels of cAMP was performed according to the protocol supplied by PerkinElmer Life Science. The optimization of the experimental conditions (quantity of cells, times of incubation) is reported below.
A plate of confluence cells was trypsinized and the cells were resuspended in the aforementioned culture medium, sown at a concentration of 50000 cells/200 μl per well in a 96-well plate and cultivated overnight in a CO2 incubator. The culture medium was then aspirated from every well and substituted with 100 μl of culture substrate without serum, preheated at 37° C. The plate was then put back into a CO2 incubator for 30 mins at 37° C. 50 μl of IBMX (3-isobutyl-1-methylxanthine) 1 mM, an inhibitor of the phosphodiesterase was then added to all the wells. In some wells 50 μl of forskolin (compound used for the validation of the DELFIA) was added at different concentrations (100 nM, 500 nM, 1 μM, 10 μM, 50 μM) and in the other wells 50 μl of the compounds to be tested at the same concentrations as the forskolin; the plate was then again incubated for 30 min at 37° C. The cells, at this point, were lysed and incubated at room temperature for 5 min. The plate was used immediately for measuring the levels of cAMP or stored at 4° C. until the measurement was carried out. The fluorescence was determined using a multilabel time-resolved fluorimetry technique performed on a PerkinElmer 1420 Victor®. The excitation and emission wavelengths were 340 nm and 615 nm respectively.

The target of test [2] is T2, cloned human β1-adrenergic receptor (Homo sapiens, UniProt P08588).
T2 construct: expressed in transfected cells; host or cells: CHO (membranes)
As to the kind of experiment: [3H]-dihydroalprenolol binding on CHO cell membranes, β1-adrenergic receptor. As to the method:
as §1
(§2) The preconfluence cells were washed with cold PBS, removed from the surface of the plate, collected in cold lysis buffer (10×10^6/ml; 5 mM Tris/HCl, 2 mM EDTA, pH 7.4 at 4° C.) and homogenized with a Brinkmann Polytron (5 for 3×10 secs). The cell membranes obtained were then […] for 10 mins at 4° C. at 1000 g. The supernatant was centrifuged at 10000 g for 30 min. at 4° C. The resultant membrane pellet was resuspended in cold incubation buffer (50 mM Tris/HCl, 10 mM MgCl2, pH 7.4 for the binding experiments on the β1-adrenergic receptors; 50 mM Tris/HCl, pH 7.4 for the binding experiments of on the β2-adrenergic receptors) and its protein content was then determined. The membrane suspension obtained was used immediately or stored at −80° C. until used in the binding experiments.
(§3) The saturation experiments were conducted by incubating the cell membranes (50 μg of protein) in 500 μl of incubation buffer, containing increasing concentrations of [^3H]-dihydroalprenolol (0.1 nM, 0.5 nM, 1 nM, 3 nM, 5 nM, 10 nM). The β1-adrenergic receptors were incubated at 30° C. for 30 min. while the incubation lasted 90 min. in the case of the β2-adrenergic receptor. […] The filters were then washed (3×1 ml) with cold incubation buffer. The residual radioactivity of the filters was measured using a Beckmann LS6500 Multi-purpose scintillator.
(§4) The competitive experiments were conducted by incubation of 50 μg of protein with increasing quantities of the compound under examination (from 10^−9M to 10^−4M) and 4 nM [^3H]-dihydroalprenolol for the β1-adrenergic receptor or 0.4 nM for the β2-adrenergic receptor, in a total volume of 500 μl of incubation buffer.

Test [3] has as its target T3, cloned human β2-adrenergic receptor (Homo sapiens, UniProt P07550).
T3 construct: expressed in transfected cells; host or cells: CHO (membranes)
The experiment in a line: [3H]-dihydroalprenolol binding on CHO cell membranes, β2-adrenergic receptor. The protocol: as §1, §2, §3, §4

Where [4] appears, read: human β1, Cheng-Prusoff, 4 nM [3H]-dihydroalprenolol, read-out: Binding Ki, β1.
Setting [5] is: human β2, Cheng-Prusoff, 0.4 nM [3H]-dihydroalprenolol, read-out: Binding Ki, β2.

Like-named read-outs stand apart in the source and are kept apart here.

T1 sequence (P13945 whole entry): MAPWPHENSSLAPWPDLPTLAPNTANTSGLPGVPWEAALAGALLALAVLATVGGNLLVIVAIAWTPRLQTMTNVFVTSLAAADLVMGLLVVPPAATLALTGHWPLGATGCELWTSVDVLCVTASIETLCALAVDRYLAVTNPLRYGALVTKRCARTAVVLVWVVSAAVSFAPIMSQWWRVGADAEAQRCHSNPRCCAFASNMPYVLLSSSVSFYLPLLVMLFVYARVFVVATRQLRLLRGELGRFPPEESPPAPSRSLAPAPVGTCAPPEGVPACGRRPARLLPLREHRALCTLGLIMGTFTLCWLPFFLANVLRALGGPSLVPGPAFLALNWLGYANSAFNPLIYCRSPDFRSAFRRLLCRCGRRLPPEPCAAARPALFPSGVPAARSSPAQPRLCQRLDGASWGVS
T3 sequence (P07550 whole entry): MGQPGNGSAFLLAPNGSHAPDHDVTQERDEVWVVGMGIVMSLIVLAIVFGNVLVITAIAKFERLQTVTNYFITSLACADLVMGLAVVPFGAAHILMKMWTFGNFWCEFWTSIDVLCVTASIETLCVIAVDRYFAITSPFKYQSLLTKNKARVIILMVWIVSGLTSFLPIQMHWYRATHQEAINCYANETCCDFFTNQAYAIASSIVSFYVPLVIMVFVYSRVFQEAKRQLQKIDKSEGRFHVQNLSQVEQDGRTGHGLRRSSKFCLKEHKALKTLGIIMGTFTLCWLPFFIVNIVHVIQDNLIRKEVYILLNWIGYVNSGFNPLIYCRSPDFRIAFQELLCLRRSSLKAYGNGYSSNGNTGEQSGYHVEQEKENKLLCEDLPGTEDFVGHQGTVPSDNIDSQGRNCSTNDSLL
T2 sequence (P08588 whole entry): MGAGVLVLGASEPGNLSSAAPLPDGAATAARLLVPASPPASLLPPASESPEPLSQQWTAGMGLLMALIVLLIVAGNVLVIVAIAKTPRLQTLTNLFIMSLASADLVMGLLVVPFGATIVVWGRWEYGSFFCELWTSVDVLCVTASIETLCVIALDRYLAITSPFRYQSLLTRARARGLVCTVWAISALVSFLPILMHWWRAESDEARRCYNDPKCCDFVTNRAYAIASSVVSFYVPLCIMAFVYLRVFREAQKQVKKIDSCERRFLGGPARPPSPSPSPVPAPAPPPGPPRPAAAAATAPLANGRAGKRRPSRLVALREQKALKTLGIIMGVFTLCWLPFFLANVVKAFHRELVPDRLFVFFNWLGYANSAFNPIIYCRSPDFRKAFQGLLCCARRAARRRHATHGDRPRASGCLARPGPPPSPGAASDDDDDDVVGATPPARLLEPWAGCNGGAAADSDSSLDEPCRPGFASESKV

The EC50 is the concentration that produces a half-maximal response. A lower EC50 goes with higher potency in that assay. What is called Ki is a measure of affinity in units of concentration, obtained from inhibition or displacement. As to `C[C@H](Oc1ccc(CCNC[C@H](O)c2ccccc2)cc1)C(=O)O` [Compound 1f, (2S)-(−)-2-{4-[2-((2R)-2-phenyl-2-hydroxyethylamino)ethyl]phenoxy}propionic acid], in test [1], the Emax is 50%, a half-maximal effect (EC50) was put at 2.2 ± 0.7 nM and the “type of activity on the beta-3 adrenergic receptor (in words)” value (from here on “type of activity”) was “particularly active compound as agonist”. Besides, the Ki in test [2] (setting [4]) was greater than 7000 nM. Further, the Ki in test [3] (setting [5]) was greater than 5000 nM.
`COc1ccc(S(=O)(=O)N2CCN(C[C@H](O)COc3cccc(N)c3)CC2)cc1` [Compound 2e, (S)-1-(3-aminophenoxy)-2-hydroxy-3-[4-(4-methoxyphenylsulfonyl)piperazin-1-yl]propane]: the inhibition constant Ki is greater than 7000 nM in test [2] (setting [4]) and greater than 5000 nM in test [3] (setting [5]).
For the molecule `CC(C)(Oc1ccc(CCNC[C@H](O)c2ccccc2)cc1)C(=O)O` [Compound 1b, (2R)-(−)-2-{4-[2-(2-phenyl-2-hydroxyethylamino)ethyl]phenoxy}-2-methylpropionic acid], in test [1], the Emax turned out to be 72% and the EC50 turned out to be 3.9 ± 2.1 nM. Moreover, in test [2] (setting [4]), the Ki is greater than 7000 nM. The Ki in test [3] (setting [5]) is greater than 5000 nM.
As for `CC(Oc1ccc(CCNCC(O)c2ccccc2)cc1)C(=O)O` (racemic) [Compound 1d, (±)-2-{4-[2-(2-phenyl-2-hydroxyethylamino)ethyl]phenoxy}propionic acid], in test [1], the Emax is 65% and the concentration for a half-maximal effect (EC50) came out at 3.8 ± 0.7 nM. For the same molecule, the Ki in test [2] (setting [4]) is greater than 7000 nM. The Ki in test [3] (setting [5]) is greater than 5000 nM.
For the molecule `C[C@H](NCCc1ccc(O[C@H](C)C(=O)O)cc1)[C@@H](O)c1ccccc1` [Compound 1k, (R)-2-[4-[2-((1S,2S)-1-hydroxy-1-phenylpropan-2-yl-amino)ethyl]phenoxy]propionic acid], in test [1], the Emax was 53% and a half-maximal effect (EC50) was put at 1.97 ± 0.9 nM. This molecule also displayed a Ki in test [2] greater than 7000 nM. In test [3], this molecule came in with a Ki greater than 5000 nM.
For `C[C@H](Oc1ccc(CCNC[C@@H](O)c2ccccc2)cc1)C(=O)O` [Compound 1e, (2S)-(+)-2-{4-[2-((2S)-2-phenyl-2-hydroxyethylamino)ethyl]phenoxy}propionic acid], in test [1], the Emax was -64%, the EC50 was 192 ± 19 nM and the “type of activity” value is on record as “inverse agonist activity”. In addition, the Ki in test [2] (setting [4]) was greater than 7000 nM. The inhibitory constant (Ki) in test [3] (setting [5]) was greater than 5000 nM.
Regarding `COc1ccc(S(=O)(=O)N2CCN(C[C@H](O)COc3cccc4[nH]c5ccccc5c34)CC2)cc1` [Compound 2j, (S)-1-(Carbazol-4-yloxy)-2-hydroxy-3-[4-(4-methoxybenzenesulfonyl)piperazin-1-yl)propane], in test [1], the Emax came out at 38% and the EC50 was 3.8 ± 1.8 nM. In addition, the inhibitory constant (Ki) in test [2] (setting [4]) is greater than 7000 nM. Further, in test [3] (setting [5]), the inhibitory constant (Ki) is 177 nM.
On to `C[C@@H](Oc1ccc(CCNC[C@H](O)c2ccccc2)cc1)C(=O)O` [Compound 1h, (2R)-(−)-2-{4-[2-((2R)-2-phenyl-2-hydroxyethylamino)ethyl]phenoxy}propionic acid], for which the Emax in test [1] was 35%. In addition, in test [1], the EC50 was 107 ± 37 nM. In addition, the Ki in test [2] (setting [4]) is greater than 7000 nM; in test [3] (setting [5]), greater than 5000 nM.
Consider `COc1ccc(S(=O)(=O)N2CCN(C[C@H](O)COc3ccccc3)CC2)cc1` [Compound 2a, (S)-2-hydroxy-3-[4-(4-methoxyphenylsulfonyl)piperazin-1-yl]-1-phenoxy propane], for which, in test [1], the Emax was determined as 58% and the midpoint of the response, the EC50, lay at 5 ± 1.9 nM. For the same molecule, in test [2] (setting [4]), the Ki was greater than 7000 nM. The Ki in test [3] (setting [5]) was greater than 5000 nM.
As for `C[C@@H](Oc1ccc(CCNC[C@@H](O)c2ccccc2)cc1)C(=O)O` [Compound 1g, (2R)-(+)-2-{4-[2-((2S)-2-phenyl-2-hydroxyethylamino)ethyl]phenoxy}propionic acid], in test [1], the Emax was -73%; the midpoint of the response, the EC50, lay at 176 ± 20 nM; the “type of activity” value is “inverse agonist activity”. For the same molecule, the Ki in test [2] (setting [4]) is greater than 7000 nM. Further, the Ki in test [3] (setting [5]) was greater than 5000 nM.
On the same counts, the results for `CC(C)(Oc1ccc(CCNCC(O)c2ccccc2)cc1)C(=O)O` (racemic) [Compound 1a, (±)-2-{4-[2-(2-phenyl-2-hydroxyethylamino)ethyl]phenoxy}-2-methylpropionic acid] are 68%, 4.9 ± 0.25 nM, “behaves as an agonist of the beta-3 adrenergic receptor independently of the configuration of the chiral atom”, greater than 7000 nM and greater than 5000 nM.
As for `CC(C)(Oc1ccc(CCNC[C@@H](O)c2ccccc2)cc1)C(=O)O` [Compound 1c, (2S)-(+)-2-{4-[2-(2-phenyl-2-hydroxyethylamino)ethyl]phenoxy}-2-methylpropionic acid], in test [1], the Emax is 76% and the EC50 came out at 3.4 ± 0.8 nM. Further, in test [2] (setting [4]), the Ki is greater than 7000 nM. Also, the Ki in test [3] (setting [5]) is greater than 5000 nM.
`COc1ccc(S(=O)(=O)N2CCN(C[C@H](O)COc3cccc4ccccc34)CC2)cc1` [Compound 2i, (S)-2-hydroxy-1-(napht-1-yloxy)-3-[4-(4-methoxyphenylsulfonyl)piperazin-1-yl)propane]: in test [1], the Emax is 43% and the EC50 turned out to be 5.24 ± 1.08 nM. For the same molecule, the Ki in test [2] (setting [4]) was greater than 7000 nM. For the same molecule, in test [3] (setting [5]), the Ki was greater than 2000 nM.
On the same counts, the results for `COc1ccc(S(=O)(=O)N2CCN(C[C@H](O)COc3ccc(O)cc3)CC2)cc1` [Compound 2b, (S)-2-hydroxy-1-(4-hydroxyphenoxy)-3-[4-(4-methoxyphenylsulfonyl)piperazin-1-yl]propane] are 67%, 1.97 ± 0.92 nM, greater than 7000 nM and greater than 5000 nM.
For `COc1ccc(S(=O)(=O)N2CCN(C[C@H](O)COc3ccc(OCc4ccccc4)cc3)CC2)cc1` [Compound 2c, (S)-1-(4-benzyloxyphenoxy)-2-hydroxy-3-[4-(4-methoxybenzenesulfonyl)piperazin-1-yl]propane], in that order: 48%, 8.3 ± 1.94 nM, greater than 7000 nM and greater than 5000 nM.
For `COc1ccc(S(=O)(=O)N2CCN(C[C@H](O)COc3cccc([N+](=O)[O-])c3)CC2)cc1` [Compound 2d, (S)-2-hydroxy-3-[4-(4-methoxyphenylsulfonyl)piperazin-1-yl]-1-(3-nitrophenoxy)-propane], in that order: 84%, 4.1 ± 1.93 nM, greater than 7000 nM and greater than 5000 nM.
